Source: paper PMC9168271, “Discovery of Novel Tetrahydro-β-carboline Containing Aminopeptidase N Inhibitors as Cancer Chemosensitizers” (Frontiers in Oncology, 2022)

Legend:
MDA-MB-231 cells [1] = assay: MTT antiproliferative assay, chemotherapeutic drug with APN inhibitor; format: cell-based, human; conditions: for antiproliferative activity of chemotherapeutic drugs in combination with APN inhibitor: with PTX, EPB, CTX, CBP, 48 h
Excerpt: (§1) The combination of APN inhibitor and paclitaxel (PTX), has been employed for the treatment of human breast cancer. In the current study, molecules with good APN inhibitory potency (D12, D14 and D16) were selected and used in combination with several chemotherapeutic drugs, such as PTX, EPB, cyclophosphamide (CTX) and carboplatin (CBP) to investigate its inhibitory effect on breast cancer. Human triple negative breast cancer cell (TNBC) lines MDA-MB-231 and MDA-MB-468 were utilized in the in vitro studies. […] It was also observed that the synthesized molecules enhanced chemotherapeutic drug sensitivity in a dose dependent manner. Therefore, further analysis was performed to examine the synergistic effects of the derived APN inhibitors and chemotherapeutic drugs.
(§2) Then, 10μL of MTT solution (5 mg/mL) were added to each well. After incubation for 4h, the medium was carefully removed, and 100 μL DMSO was added to each well and fully dissolved in vibration for 10min. The optical density (OD) at 490 nm and 630 nm were measured with a microplate Spectrophotometer (M5, MD). IC50 values were obtained from at least 3 independent experiments.

MDA-MB-468 cells [2] = assay: as above; format: cell-based, human; conditions: for antiproliferative activity of chemotherapeutic drugs in combination with APN inhibitor: with PTX, EPB, CTX, CBP, 48 h
Excerpt: as §1, §2

[3] = tested on: CD13 (APN) expression in MDA-MB-231 cells; assay: Flow cytometry of APN expression; format: cell-based, human; conditions: 48 h
Experimental: (§3) The cells were seeded in 6-well plates (4 × 10^5 cells/well) and treated with tested compounds for 48 h. Then, cells were collected into 1.5 mL EP tubes, washed twice with PBS, and centrifuged at 2500rpm for 5minutes. Cells were resuspended with 100μlof PBS, then 2μL/tube of APN antibody was added, followed by incubation in dark for 30 minutes at 4°C. Then the cells were subjected to flow cytometry (FACSAria II, Becton-Dickinson) for the expression of APN.

[4] = tested on: CD13 (APN) expression in MDA-MB-468 cells; assay: Flow cytometry of APN expression; format: cell-based, human; conditions: 48 h
Experimental: as §3

MDA-MB-231 cells [5] = assay: Cellular reactive oxygen species detection (DCFH-DA, flow cytometry); format: cell-based, human; conditions: PTX alone, 48 h
MDA-MB-468 cells [6] = assay: as above; format: cell-based, human; conditions: PTX alone, 48 h
MDA-MB-231 cells [7] = assay: Apoptosis analysis (Annexin V-FITC/PI); format: cell-based, human; conditions: 48 h
Experimental: (§4) Moreover, APN inhibitor-induced chemo-sensitization had been frequently reported for PTX ([17], [29]). Therefore, the combination of PTX-APN inhibitor was selected in the subsequent studies.
(§5) The cells were seeded in 6-well plates (3 × 10^5 cells/well) and treated with various compounds for 48 h. Then, cells were collected and washed twice with cold PBS. Annexin V-FITC staining solution was then added to the cells, and cells were incubated at 2-8°C for 15 minutes under dark conditions. Then, PI staining solution was added by gentle mix at 2-8°C. After 5 minutes of incubation under dark conditions, cells were tested with flow cytometry immediately.

MDA-MB-468 cells [8] = assay: Apoptosis analysis (Annexin V-FITC/PI); format: cell-based, human; conditions: 48 h
Experimental: as §4, §5

MDA-MB-231 cells [9] = assay: Spheroid-formation assay; format: cell-based, human; conditions: 1 nM PTX + 1 µM APN inhibitor, 7 days
Experimental: (§6) Cancer stem cells (CSCs) play an important role in the resistance of cancer cells to chemotherapeutic drugs. APN has been reported to be a therapeutic target in human cancer stem cells ([18]). Therefore, the CSC based test was performed in the present study. Colony-formation assay and spheroid-formation assay are two commonly used methods to assess the capacity of CSCs in vitro. In the spheroid-formation assay, MDA-MB-231 and MDA-MB-468 cells were dispersed into single cells, inoculated into low-adherence 6-well plates, and added with stem cell sphere medium. The stem cell spheres became visible after 5-6 days incubation. […] It is known that mRNA levels of the stem cell biomarkers OCT-4, SOX-2 and Nanog are associated with the characteristics of TNBC stem cells ([30]). Therefore, RT-PCR was performed on the TNBC cells to detect the mRNA levels of these markers.
(§7) MDA-MB-231 cells and MDA-MB-468 cells in logarithmic growth phase were collected, stem cell sphere culture medium without serum (containing 50X B-27Supplement,100X N-2 Supplement,20 μg/L epidermal growth factor (EGF), 20µg/L insulin-like growth factor (IGF-1), 10 μg/L fibroblast growth factor (b-FGF), 20X Knock Out SR, 2mM L-Glutamine, 5mg/L Heparin sodium, 1X PENICILLIN-STREPTOMYCIN and DMEM: F12 (1:1) medium was added for the re-suspension and fully blown into single-cell suspension. The cells were diluted to 5,000/2 mL, with stem cell sphere culture medium, and cultured in a 37°C, 5% CO2 cell incubator. The number of stem cell spheres were observed every day. […]

MDA-MB-468 cells [10] = assay: Spheroid-formation assay; format: cell-based, human; conditions: 1 nM PTX + 1 µM APN inhibitor, 7 days
Experimental: as §6, §7

MDA-MB-231 cells [11] = assay: Colony-formation assay; format: cell-based, human; conditions: 0.2 nM PTX + 1 µM APN inhibitor, 14 days
Experimental: as §6
(§8) 3000 cells were suspended in 2 mL medium, and seeded into the wells of six-well plate. After 12 hours of incubation, cells were treated with various compounds. Until each colony had more than 50 cells, this experiment terminated. Cells were washed twice with PBS and fixed with methanol for 10minutes. Then cells were stained with 1% crystal violet for 5minutes. Finally, colonies were washed and pictures were taken under a microscope (IX81, Olympus).

MDA-MB-468 cells [12] = assay: Colony-formation assay; format: cell-based, human; conditions: 0.2 nM PTX + 1 µM APN inhibitor, 14 days
Experimental: as §6, §8

[13] = tested on: luciferase-expressing MDA-MB-231 cells; assay: In vivo anticancer study, xenograft model in female nude mice; conditions: 20 mg/kg/d APN inhibitor + 10 mg/kg/3 days PTX; 3 weeks; n = 4
Experimental: To evaluate the in vivo anticancer potency of the combination of PTX-APN inhibitor, cancer xenograft model was established by inoculation of luciferase- expressing MDA-MB-231 cells to female nude mice. About 1×10^7 MDA-MB-231 cells were injected subcutaneously into the right fat pad of the fourth mammary gland of the mice. […] Significant tumor size variations were observed among different groups ( Figures 5A, B ). […] Moreover, no clear signs of toxicity in liver and spleen were detected in the sacrificed mice.
Female Nude mice aged 3 weeks were purchased from Hunan SJA Experimental Animal Company and raised under SPF aseptic conditions. About 1×10^7 luciferase overexpressing MDA-MB-231 cells were injected subcutaneously into the right fat pad of the fourth mammary gland of each mouse. […] PBS group animals received PBS via intraperitoneal injection, while 10 mg/kg/3 days of PTX was administered to animals in the PTX group. […] After 3 weeks of administration, each mouse was intraperitoneally injected with 200uL of fluorescein substrate (d-fluorescein potassium salt, 150mg/kg), and then anesthetized with isoflurane. In vivo fluorescence imaging system (IVIS Spectrum, PerkinElmer) and SlideBook4.0 software were utilized for the result analysis. After the imaging analysis, mice were sacrificed and dissected for the detection of tumor size and calculation of liver/spleen indexes. All animal experiments were approved by the Animal Care and Use Committee of Weifang Medical University.

[14] = molecular target: Aminopeptidase N (APN, CD13) (Homo sapiens, UniProt P15144); assay: APN enzyme inhibitory assay, supernatant of K562-CD13 cells as enzyme source, L-leucine-p-nitro anilide substrate; conditions: for inhibition at 30 µM: read-out: Inhibitory rate (%);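 on all read-outs here: substrate L-leucine-p-nitro anilide used at 1.6 mM, with enzyme from sonicated APN-overexpressing K562 cell lysate supernatant, run in 96-well plates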
Chain of Aminopeptidase N (APN, CD13) (P15144 whole entry): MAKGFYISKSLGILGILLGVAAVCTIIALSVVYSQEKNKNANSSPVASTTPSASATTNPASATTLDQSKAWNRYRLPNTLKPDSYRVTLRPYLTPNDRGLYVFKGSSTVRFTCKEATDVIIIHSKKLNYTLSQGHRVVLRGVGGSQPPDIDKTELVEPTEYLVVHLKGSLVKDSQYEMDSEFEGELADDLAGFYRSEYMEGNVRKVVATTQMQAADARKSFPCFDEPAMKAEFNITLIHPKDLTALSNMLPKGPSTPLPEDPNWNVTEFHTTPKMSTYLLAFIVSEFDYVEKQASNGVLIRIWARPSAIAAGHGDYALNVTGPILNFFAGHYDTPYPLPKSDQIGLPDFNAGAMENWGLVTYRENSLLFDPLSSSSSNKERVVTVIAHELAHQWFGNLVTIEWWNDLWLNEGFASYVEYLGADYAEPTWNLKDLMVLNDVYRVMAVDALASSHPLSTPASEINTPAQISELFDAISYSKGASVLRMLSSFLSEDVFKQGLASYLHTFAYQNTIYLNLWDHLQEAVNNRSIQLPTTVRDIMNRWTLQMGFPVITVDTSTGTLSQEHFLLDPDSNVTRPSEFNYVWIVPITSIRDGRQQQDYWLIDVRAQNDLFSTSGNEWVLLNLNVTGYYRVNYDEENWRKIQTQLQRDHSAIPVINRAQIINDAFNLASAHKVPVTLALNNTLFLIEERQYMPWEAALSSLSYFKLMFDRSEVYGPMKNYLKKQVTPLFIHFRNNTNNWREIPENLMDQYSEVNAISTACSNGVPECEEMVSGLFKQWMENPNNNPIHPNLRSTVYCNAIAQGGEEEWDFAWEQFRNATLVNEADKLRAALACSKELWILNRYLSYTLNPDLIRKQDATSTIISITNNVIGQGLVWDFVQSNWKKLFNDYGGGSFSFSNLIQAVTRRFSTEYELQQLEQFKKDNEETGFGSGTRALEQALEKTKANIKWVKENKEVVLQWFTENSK
Experimental: In the enzyme inhibitory assay, K562-CD13 monoclonal cells were used as APN enzyme source as described in our previous work ([27]).
K562 cells with overexpression of APN were added into PBS for ultrasonic crushing, centrifuged for 10 minutes, and supernatant was taken as enzyme source and added into 96-well plate. Different concentrations of compounds were added subsequently, and 1.6 mM L-leucine-p-nitro anilide was used as substrate. After 30 minutes of reaction, the APN enzyme activity was measured at 405 nm absorbance. The inhibition rate of APN activity was analyzed by the formula (Od control OD tested)/Od control 100%.

Row | SMILES | IC50 [14] [µM] | inhibition at 30 µM [14] [%] | inhibitory potency among the tested chemotherapeutic drugs (MDA-MB-231 cells [1]; chemotherapeutic drug) | inhibitory potency among the tested chemotherapeutic drugs (MDA-MB-468 cells [2]; chemotherapeutic drug) | APN expression relative to untreated control ([3]; PTX alone) | APN expression relative to untreated control ([4]; PTX alone) | ROS levels compared to control group (MDA-MB-231 cells [5]) | ROS levels compared to control group (MDA-MB-468 cells [6]) | antiproliferative activity of chemotherapeutic drugs in combination with APN inhibitor (MDA-MB-231 cells [1]) | antiproliferative activity of chemotherapeutic drugs in combination with APN inhibitor (MDA-MB-468 cells [2]) | APN expression, combination with PTX compared with paclitaxel alone [3] | APN expression, combination with PTX compared with paclitaxel alone [4] | apoptotic rate in combination with PTX, compared with Bestatin (MDA-MB-231 cells [7]) | apoptotic rate in combination with PTX, compared with Bestatin (MDA-MB-468 cells [8]) | number of tumor spheres formed, compared with control and PTX alone (MDA-MB-231 cells [9]) | number of tumor spheres formed, compared with control and PTX alone (MDA-MB-468 cells [10]) | colony formation, compared with control and single PTX (MDA-MB-231 cells [11]) | colony formation, compared with control and single PTX (MDA-MB-468 cells [12]) | anticancer effect of PTX (tumor weight) compared with single PTX administration group [13] | inhibitory rate (tumor), in combination with PTX [13] [%]
1 | CC(=O)O[C@H]1C(=O)[C@@]2(C)[C@H]([C@H](OC(=O)c3ccccc3)[C@]3(O)C[C@H](OC(=O)[C@H](O)[C@@H](NC(=O)c4ccccc4)c4ccccc4)C(C)=C1C3(C)C)[C@]1(OC(C)=O)CO[C@@H]1C[C@@H]2O [PTX, Paclitaxel, reference compound] | – | – | highest inhibitory potency | highest inhibitory potency | up-regulated APN expression | up-regulated APN expression | increased ROS levels | increased ROS levels | – | – | – | – | – | – | – | – | – | – | – | –
2 | CC(C)C[C@H](NC(=O)[C@@H](O)[C@H](N)Cc1ccccc1)C(=O)O [Bestatin, reference compound] | – | 53.9 ± 0.77 | – | – | – | – | – | – | – | – | decreased APN expression | decreased APN expression | – | – | significant decrease in the number of tumor spheres | significant decrease in the number of tumor spheres | – | – | improved the anticancer effect of PTX | 10.63

Continued, in another order:

Row | IC50 [14] [µM] | inhibition at 30 µM [14] [%] | SMILES | inhibitory potency among the tested chemotherapeutic drugs (MDA-MB-231 cells [1]; chemotherapeutic drug) | inhibitory potency among the tested chemotherapeutic drugs (MDA-MB-468 cells [2]; chemotherapeutic drug) | APN expression relative to untreated control ([3]; PTX alone) | APN expression relative to untreated control ([4]; PTX alone) | ROS levels compared to control group (MDA-MB-231 cells [5]) | ROS levels compared to control group (MDA-MB-468 cells [6]) | antiproliferative activity of chemotherapeutic drugs in combination with APN inhibitor (MDA-MB-231 cells [1]) | antiproliferative activity of chemotherapeutic drugs in combination with APN inhibitor (MDA-MB-468 cells [2]) | APN expression, combination with PTX compared with paclitaxel alone [3] | APN expression, combination with PTX compared with paclitaxel alone [4] | apoptotic rate in combination with PTX, compared with Bestatin (MDA-MB-231 cells [7]) | apoptotic rate in combination with PTX, compared with Bestatin (MDA-MB-468 cells [8]) | number of tumor spheres formed, compared with control and PTX alone (MDA-MB-231 cells [9]) | number of tumor spheres formed, compared with control and PTX alone (MDA-MB-468 cells [10]) | colony formation, compared with control and single PTX (MDA-MB-231 cells [11]) | colony formation, compared with control and single PTX (MDA-MB-468 cells [12]) | anticancer effect of PTX (tumor weight) compared with single PTX administration group [13] | inhibitory rate (tumor), in combination with PTX [13] [%]
3 | 8.92 ± 0.38 | 74.9 ± 4.35 | O=C(Cn1c2c(c3ccccc31)CCN(C(=O)c1cccc(F)c1)C2)NO [Compound D12, 2-(2-(3-fluorobenzoyl)-1,2,3,4-tetrahydro-9H-pyrido[3,4-b]indol-9-yl)-N-hydroxyacetamide] | – | – | – | – | – | – | synergistically improved the antiproliferative activity of chemotherapeutic drugs | synergistically improved the antiproliferative activity of chemotherapeutic drugs | decreased APN expression | decreased APN expression | higher apoptotic rate | higher apoptotic rate | significant decrease in the number of tumor spheres | significant decrease in the number of tumor spheres | decreased the tumor sphere and colony formation abilities | decreased the tumor sphere and colony formation abilities | improved the anticancer effect of PTX | 54.02
4 | 7.9 ± 0.27 | 74.5 ± 4.66 | Cc1ccccc1C(=O)N1CCc2c(n(CC(=O)NO)c3ccccc23)C1 [Compound D16, N-hydroxy-2-(2-(2-methylbenzoyl)-1,2,3,4-tetrahydro-9H-pyrido[3,4-b]indol-9-yl)acetamide] | – | – | – | – | – | – | synergistically improved the antiproliferative activity of chemotherapeutic drugs | synergistically improved the antiproliferative activity of chemotherapeutic drugs | decreased APN expression | decreased APN expression | higher apoptotic rate | higher apoptotic rate | significant decrease in the number of tumor spheres | significant decrease in the number of tumor spheres | decreased the tumor sphere and colony formation abilities | decreased the tumor sphere and colony formation abilities | improved the anticancer effect of PTX | 14.15
5 | 7.74 ± 0.33 | 74.3 ± 6.16 | O=C(Cn1c2c(c3ccccc31)CCN(C(=O)c1ccccc1F)C2)NO [Compound D14, 2-(2-(2-fluorobenzoyl)-1,2,3,4-tetrahydro-9H-pyrido[3,4-b]indol-9-yl)-N-hydroxyacetamide] | – | – | – | – | – | – | synergistically improved the antiproliferative activity of chemotherapeutic drugs | synergistically improved the antiproliferative activity of chemotherapeutic drugs | decreased APN expression | decreased APN expression | higher apoptotic rate | higher apoptotic rate | significant decrease in the number of tumor spheres | significant decrease in the number of tumor spheres | decreased the tumor sphere and colony formation abilities | decreased the tumor sphere and colony formation abilities | improved the anticancer effect of PTX | 31.32
